Measurements as given in patent US20240368115A1, “REGULATOR CONTAINING TRICYCLIC DERIVATIVE, PREPARATION METHOD THEREFOR AND APPLICATION THEREOF” (SHUJING BIOPHARMA CO., LTD, priority 2021, published 2024).
pEC50, pIC50: −log10 of the molar value.

Tests used:
Assay type in all cases: cell-based
[1] = target: T1, D2S receptor (Homo sapiens, UniProt P14416); test: D2S receptor cAMP agonist test; conditions: HEK293 cell strain stably expressing D2S receptor; for pEC50: cAMP, forskolin 5×10^−7 M; for D2S Max Act %: positive control dopamine 1×10^−7 M
T1 construct: expressed in transfected cells
Excerpt: (§1) cAMP detection kit was purchased from Cisbio; an HEK293 cell strain stably expressing D2S receptor was constructed by Shanghai Shujing Biopharma Co., Ltd.; dopamine, forskolin, and IBMX were purchased from Sigma; ProxiPlate-384 well plates were purchased from PerkinElmer; HBSS was purchased from Thermo Fisher Scientific.
(§2) • (1) The cultured cells were digested with trypsin, and the cell suspension was washed with HBSS buffer after the digestion was terminated. The medium was removed by centrifugation at 200×g. The pellet was resuspended in an appropriate amount of experimental buffer, and 20 μL of cell suspension was counted using a cell counter and diluted to 0.6×10^6 cells/mL. • (2) 5 μL of cell suspension was added to a ProxiPlate-384 well plate (3×10^3 cells/well). • (3) Test compounds were serially diluted in an experimental buffer, and 5 μL of the mixed solution was transferred to the reaction plate with Bravo.

[2] = target: 5-HT2A receptor (Homo sapiens, UniProt P28223); test: Calcium flux test for 5-HT2A receptor; conditions: CHO cell strain stably expressing 5-HT2A receptor; for pIC50: calcium flux, antagonism of serotonin; for 5-HT2A Max Inh %: positive control ketanserin 10^−7 M
Description: • Fluo-4 calcium flux detection kit was purchased from Invitrogen; a CHO cell strain stably expressing 5-HT2A receptor was purchased from PerkinElmer; serotonin was purchased from Sigma; ketanserin was purchased from Targetmol; polylysine-coated 384-well plates and 384-well compound plates were purchased from Greiner Bio-One. Molecular Device FLIPR, Agilent Bravo liquid workstation, and Countstar BioTech cell counter.
• (1) The cryopreserved cells were rapidly thawed in a water bath at 37° C., and the cells were resuspended in a plating medium. The cryopreservation solution was removed by centrifugation at 200×g. The pellet was resuspended in an appropriate amount of plating medium, 20 μL of cell suspension was counted using a cell counter, and the cell density was diluted to 1×10^6 cells/mL. • (2) 20 μL of cell suspension was added to a polylysine-coated 384-well plate (2×10^4 cells/well). • (3) The cell plate was incubated in a 37° C./5% CO2 incubator for 16-20 h.
• (1) The cell plate was taken out from the incubator and centrifuged at 100×g to remove the medium. 20 μL of experimental buffer was added, and then 20 μL of 2× fluorescent probe solution was added. […] The cell plate and agonist positive compound plate were placed into the FLIPR instrument, the detection program was run, 10 μL of the diluted compound was transferred from the agonist compound plate to the cell plate, and the fluorescence signal was read. […] The cell plate and test compound plate were placed in the FLIPR instrument, the detection program was run, and 10 μL of the diluted compound was transferred from the test compound plate to the cell plate. […] The test compound plate was then taken out, and the agonist positive compound plate with 6×EC50 concentration was placed.
Inhibition rate (Inhibition %)=(negative control reading value−compound reading value)/(negative control reading value−positive control reading value)×100%

[3] = target: T2, D2L receptor (Homo sapiens, UniProt P14416); test: D2L receptor cAMP agonist test; conditions: HEK293 cell strain stably expressing D2L receptor; for pEC50: cAMP, forskolin 0.5 μM; for D2L Max Act %: positive control dopamine 1 μM
T2 construct: expressed in transfected cells
Description: as §1, with “• cAMP” for “cAMP”, “D2L” for “D2S”
• (1) The cryopreserved cells were thawed in a water bath at 37° C., the cell suspension was resuspended in HBSS buffer, and the mixed solution was centrifuged at 750 rpm for 5 min to remove the medium. The pellet was resuspended in an appropriate amount of experimental buffer, and an appropriate amount of cell suspension was diluted to 0.4×10^6 cells/mL. • (2) 5 μL of cell suspension was added to a ProxiPlate-384 well plate (2×10^3 cells/well), and the plate was centrifuged at 1000 rpm for 1 min. • (3) Test compounds were serially diluted in an experimental buffer, and 5 μL of the mixed solution was transferred to the reaction plate with Bravo.

[4] = target: T3, 5-HT1A receptor (Homo sapiens, UniProt P08908); test: 5-HT1A receptor cAMP agonist test; conditions: HEK293 cell strain stably expressing 5-HT1A receptor; for pEC50: cAMP, forskolin 2.5×10^−7 M; for 5-HT1A Max Act %: positive control serotonin 10^−6 M
T3 construct: expressed in transfected cells
T3 sequence (P08908 1-422): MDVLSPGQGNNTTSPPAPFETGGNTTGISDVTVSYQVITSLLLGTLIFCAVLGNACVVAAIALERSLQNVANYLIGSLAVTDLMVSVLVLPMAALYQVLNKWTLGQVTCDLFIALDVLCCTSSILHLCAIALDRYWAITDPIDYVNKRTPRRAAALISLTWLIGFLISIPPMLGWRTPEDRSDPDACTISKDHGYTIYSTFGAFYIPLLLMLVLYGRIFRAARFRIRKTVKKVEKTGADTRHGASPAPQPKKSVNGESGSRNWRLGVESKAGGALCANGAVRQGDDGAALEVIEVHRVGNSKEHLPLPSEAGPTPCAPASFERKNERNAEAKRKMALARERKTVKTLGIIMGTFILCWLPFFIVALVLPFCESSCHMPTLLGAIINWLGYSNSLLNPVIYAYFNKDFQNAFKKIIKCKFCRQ
Excerpt: as §1, with “• cAMP” for “cAMP”, “5-HT1A” for “D2S”, “serotonin,” for “dopamine,”
as §2, with “0.4×10^6” for “0.6×10^6”, “(2×10^3” for “(3×10^3”

Chain of 5-HT2A receptor (P28223 whole entry): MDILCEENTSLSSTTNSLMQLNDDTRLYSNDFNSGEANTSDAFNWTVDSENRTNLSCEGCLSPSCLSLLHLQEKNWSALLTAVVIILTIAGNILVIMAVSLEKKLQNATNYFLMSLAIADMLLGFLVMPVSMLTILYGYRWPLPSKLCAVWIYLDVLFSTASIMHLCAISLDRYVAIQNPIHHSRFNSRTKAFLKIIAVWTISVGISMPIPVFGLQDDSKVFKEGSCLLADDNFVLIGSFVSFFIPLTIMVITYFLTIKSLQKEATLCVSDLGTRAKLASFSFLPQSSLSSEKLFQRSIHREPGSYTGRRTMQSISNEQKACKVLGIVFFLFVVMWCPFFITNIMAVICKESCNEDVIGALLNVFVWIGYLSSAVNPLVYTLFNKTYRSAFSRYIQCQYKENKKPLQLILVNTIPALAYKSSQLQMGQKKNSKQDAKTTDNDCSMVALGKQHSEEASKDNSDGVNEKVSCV
T1 sequence (P14416 1-414 isoform P14416-2): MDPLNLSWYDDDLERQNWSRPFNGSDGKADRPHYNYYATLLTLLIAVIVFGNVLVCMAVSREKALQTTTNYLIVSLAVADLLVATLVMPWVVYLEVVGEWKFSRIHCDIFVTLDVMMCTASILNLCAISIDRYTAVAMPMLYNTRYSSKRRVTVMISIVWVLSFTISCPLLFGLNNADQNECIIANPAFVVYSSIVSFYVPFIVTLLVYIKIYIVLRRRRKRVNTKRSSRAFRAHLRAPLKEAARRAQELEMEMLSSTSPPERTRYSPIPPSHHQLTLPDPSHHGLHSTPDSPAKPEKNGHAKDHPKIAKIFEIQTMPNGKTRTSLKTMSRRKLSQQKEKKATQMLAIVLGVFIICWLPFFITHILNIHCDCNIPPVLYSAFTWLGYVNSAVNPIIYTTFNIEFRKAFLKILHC
T2 sequence (P14416 whole entry): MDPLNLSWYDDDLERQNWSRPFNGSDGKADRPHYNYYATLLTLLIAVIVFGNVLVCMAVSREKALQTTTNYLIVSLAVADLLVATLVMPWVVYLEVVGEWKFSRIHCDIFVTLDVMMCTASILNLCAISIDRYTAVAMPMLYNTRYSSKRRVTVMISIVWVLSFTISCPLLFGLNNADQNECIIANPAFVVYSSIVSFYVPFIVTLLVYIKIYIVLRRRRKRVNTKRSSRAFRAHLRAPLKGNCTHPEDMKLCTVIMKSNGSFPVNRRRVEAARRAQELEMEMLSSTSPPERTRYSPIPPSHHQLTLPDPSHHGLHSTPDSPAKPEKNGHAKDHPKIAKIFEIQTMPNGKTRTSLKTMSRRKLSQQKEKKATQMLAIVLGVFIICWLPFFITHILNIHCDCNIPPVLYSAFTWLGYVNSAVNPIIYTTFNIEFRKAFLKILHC

SMILES	pEC50 [1]	D2S Max Act % [1] [%]	pIC50 [2]	5-HT2A Max Inh % [2] [%]	pEC50 [3]	D2L Max Act % [3] [%]	pEC50 [4]	5-HT1A Max Act % [4] [%]
O=C1Nc2cc(OCCCCN3CCN(c4cccc(O)c4Cl)CC3)ccc2C2CC12 (stereo not drawn) [Example 38, 5-(4-(4-(2-Chloro-3-hydroxyphenyl)piperazin-1-yl)butoxy)-1,1a,3,7b-tetrahydro-2H-cyclopropa[c]quinolin-2-one]	9.06	92.4	5.31	98.1	8.86	32.3		
O=C1Nc2cc(OCCCCN3CCN(c4cccc5c4CCC5)CC3)ccc2C2CC12 (single isomer, unassigned) [Example 43-P1]	8.89	123.1	6.07	100.7	9.05	37.9	6.71	68.3
O=C1Nc2cc(OCCCCN3CCN(c4ccc(Cl)s4)CC3)ccc2C2CC12 (stereo not drawn) [Example 51]	9.12	111.1	5.60	99.8	8.82	82.6	7.13	79.4
O=C1Nc2cc(OCCCCN3CCN(c4cccc5c4OCC5)CC3)ccc2C2CC12 (stereo not drawn) [Example 44, 5-(4-(4-(2,3-Dihydrobenzofuran-7-yl)piperazin-1-yl)butoxy)-1,1a,3,7b-tetrahydro-2H-cyclopropa[c]quinolin-2-one]	9.03	91.0	6.58	99.7	9.43	44.7	7.95	58.9
O=C1Nc2cc(OCCCCN3CCN(c4cccc5[nH]ccc45)CC3)ccc2C2CC12 (stereo not drawn) [Example 52, 5-(4-(4-(1H-Indol-4-yl)piperazin-1-yl)butoxy)-1,1a,3,7b-tetrahydro-2H-cyclopropa[c]quinolin-2-one]			5.80	99.9	9.51	65.3		
O=C1Nc2cc(OCCCCN3CCN(c4cccc5c4CCC5)CC3)ccc2C2CC12 (single isomer, unassigned) [Example 43-P2]	9.04	125.3	5.95	96.6	9.60	35.7	7.03	60.6
O=C1Nc2cc(OCCCCN3CCN(c4cccc(Cl)c4O)CC3)ccc2C2CC12 (stereo not drawn) [Example 39, 5-(4-(4-(3-Chloro-2-hydroxyphenyl)piperazin-1-yl)butoxy)-1,1a,3,7b-tetrahydro-2H-cyclopropa[c]quinolin-2-one]			5.53	94.2				
O=C1Nc2cc(OCCCCN3CCN(c4cccc5c4CCC5)CC3)ccc2C2CC12 (stereo not drawn) [Example 43, 5-(4-(4-(2,3-Dihydro-1H-inden-4-yl)piperazin-1-yl)butoxy)-1,1a,3,7b-tetrahydro-2H-cyclopropa[c]quinolin-2-one]	9.04	134.9	6.01	100.3	9.52	42.8	6.80	67.7
O=C1Nc2cc(OCCCCN3CCN(c4cccc5c4CC(F)(F)C5=O)CC3)ccc2C2CC12 (stereo not drawn) [Example 47, 5-(4-(4-(2,2-difluoro-1-one-2,3-dihydro-1H-inden-4-yl)piperazin-1-yl)butoxy)-1,1a,3,7b-tetrahydro-2H-cyclopropa[c]quinolin-2-one]	9.01	102.9	6.57	96.0	9.08	35.9	6.69	75.8
O=C1Nc2cc(OCCCCN3CCN(c4cccc5c4OCC5)CC3)ccc2C2CC12 (single isomer, unassigned) [Example 44-P2]	9.04	89.1	6.54	99.7	9.66	53.9	8.15	48.0
O=C1Nc2cc(OCCCCN3CCN(c4cccc5c4OCC5)CC3)ccc2C2CC12 (single isomer, unassigned) [Example 44-P1]	9.01	96.8	6.72	99.6	9.59	45.9	7.90	49.5
O=C1Nc2cc(OCCCCN3CCN(c4cccc5ccsc45)CC3)ccc2C2CC12 (stereo not drawn) [Example 48, 5-(4-(4-(Benzo[b]thiophen-7-yl)piperazin-1-yl)butoxy)-1,1a,3,7b-tetrahydro-2H-cyclopropa[c]quinolin-2-one]	9.05	114.8	5.62	100.5	9.31	49.0	6.44	55.2
